Patent US12692232B2, “Indole carboxamide compound, preparation therefor and use thereof” (NANJING RUISHUNING MEDICAL TECHNOLOGY CO., LTD., priority 2021, dated 2026)

Columns and labels:
[1] = biological target: T1, TRPC7 protein (Homo sapiens, UniProt Q9HCX4); assay: MST binding to TRPC7 protein; conditions: for Kd: MST; for affinity strength to TRPC6 protein higher than to TRPC7 protein: MST Kd ratio
T1 sequence (Q9HCX4 1-862): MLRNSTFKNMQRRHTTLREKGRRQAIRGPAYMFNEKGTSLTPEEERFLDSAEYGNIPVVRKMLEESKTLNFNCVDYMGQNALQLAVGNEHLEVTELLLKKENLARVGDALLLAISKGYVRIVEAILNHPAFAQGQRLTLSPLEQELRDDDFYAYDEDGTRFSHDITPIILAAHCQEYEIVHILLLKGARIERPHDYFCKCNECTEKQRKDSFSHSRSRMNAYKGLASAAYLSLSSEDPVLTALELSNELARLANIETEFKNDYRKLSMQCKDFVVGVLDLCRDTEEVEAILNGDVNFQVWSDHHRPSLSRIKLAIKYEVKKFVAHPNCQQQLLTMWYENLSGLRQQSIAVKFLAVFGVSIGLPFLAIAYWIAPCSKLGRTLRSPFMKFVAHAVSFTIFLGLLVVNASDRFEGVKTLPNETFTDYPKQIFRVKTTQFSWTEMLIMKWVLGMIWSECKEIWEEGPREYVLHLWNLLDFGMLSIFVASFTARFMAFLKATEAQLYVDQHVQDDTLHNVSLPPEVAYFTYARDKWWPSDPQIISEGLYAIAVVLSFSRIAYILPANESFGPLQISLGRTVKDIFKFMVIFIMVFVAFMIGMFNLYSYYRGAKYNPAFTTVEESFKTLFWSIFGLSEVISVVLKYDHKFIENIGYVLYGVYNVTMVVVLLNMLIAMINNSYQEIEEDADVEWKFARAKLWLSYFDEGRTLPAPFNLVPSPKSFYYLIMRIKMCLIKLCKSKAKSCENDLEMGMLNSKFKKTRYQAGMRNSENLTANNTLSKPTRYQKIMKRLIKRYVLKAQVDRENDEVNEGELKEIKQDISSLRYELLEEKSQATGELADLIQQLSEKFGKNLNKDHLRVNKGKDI
Procedure: Preparation and labelling of protein solution: TRPC6 protein dry powder (Alomone Labs, Israel) was prepared into a protein mother solution at a concentration of 10 μM using PBS-Buffer, and 35 μL of the protein stock solution was taken to the Buffer exchange A column, and centrifuged to obtain the Tris-removed protein. 34 μL Labelling Buffer was added to the Tris-removed protein according to the instructions of the Protein Fluorescent Labelling Kit (model L001). After mixing well, 3 μL of NT-647-NHS fluorescent dye was added and thus obtained mixture was incubated for 20 minutes. The protein-dye mixture was transferred to the purification B column, 300 μL of PBS-Buffer was added, and the target protein, i.e. fluorescent labelled protein TRPC6, was collected by centrifugation (with a final concentration of about 2 μM). 180 μL of target protein was mixed with 1620 μL of PBS-Buffer, and then 9 μl of Tween-20 were added thereto. Thus the resulting mixture was mixed and then centrifuged to obtain the target protein solution.
Preparation of compound solutions: the compounds were prepared separately with DMSO to storage solutions with a concentration of […]. 10 μL of each storage solution was placed in a […] EP tube, 90 μL of PBS was added thereto and the resulting mixture was thoroughly mixed to prepare 100 μL of working solution at a concentration of 1 μM for later use. Ligand gradient dilutions were made for a total of 16 concentrations, and 10 μL of 10% DMSO-Buffer was added to each of the 15 gradients except gradient 1, followed by the addition of 10 μL of ligand working solution to gradients 1 and 2, respectively. The liquid in tube 2 was mixed and then 10 μL therein was taken into tube 3, and dilution was carried out in this manner until tube 16. Tube 16 was mixed and 10 μL therein was taken and discarded, and the remainder was kept for later use.
Detection and analysis: 10 μL of protein solution was added to the 16 compound gradient dilutions respectively and mixed, and the resultant mixtures were transferred to capillary tubes sequentially to start detection on machine. After loading the data, the MST analysis model and Kd Model were selected to obtain the fitting curve and dissociation constant (Kd).
The binding ability of the compounds of the present invention (as exemplified by the compounds 1-1 and 2-1 obtained in Examples 1 and 3) for other TRPC proteins (e.g., TRPC1, TRPC3, TRPC4, TRPC5, and TRPC7) was determined using the microscale thermophoresis (MST) method. The method was as follows:
The affinity of the compounds of the present invention with TRPC1, TRPC3, TRPC4, TRPC5 and TRPC7 proteins, respectively, was determined by the same method as in Example 5.

[2] = system: lipopolysaccharide (LPS)-induced mouse model of sepsis; assay: LPS-induced mouse model of sepsis, survival analysis; format: in vivo; conditions: for average survival time: LPS 40 mg/kg i.p., LPS group 15.4±2.9; for time after which the mice began to die: LPS 40 mg/kg i.p. 30 minutes later, LPS group about 12 hours
Procedure: A lipopolysaccharide (LPS)-induced mouse model of sepsis was used to determine the preventive and therapeutic effect of the compounds of the present invention (as exemplified by compounds 1-1 and 2-1 obtained in Examples 1 and 3) against sepsis. The method was as follows:
Experimental animals: 60 male C57BL/6J mice aged 6-8 weeks. The experimental animals were housed in an environment with room temperature of 25±2° C., 12 hours dark/12 hours light, and fed with conventional feed.
Survival analysis experiment: the mice were randomly divided into 6 groups of 10 mice each, namely, i) a solvent control group: each animal was administered 0.9% saline; ii) a sepsis model group (LPS group): each animal was injected intraperitoneally with LPS at a dose of 40 mg/kg; iii) a treatment group of medium-dose compound 1-1 (LPS+25 mg/kg of compound 1-1 obtained in Example 1): each animal was administered compound 1-1 by gavage at a dose of 25 mg/kg, followed by intraperitoneal injection of LPS at a dose of 40 mg/kg 30 minutes later; iv) a treatment group of high-dose compound 1-1 (LPS+50 mg/kg of compound 1-1 obtained in Example 1): each animal was administered compound 1-1 by gavage at a dose of 50 mg/kg, followed by intraperitoneal injection of LPS at a dose of 40 mg/kg 30 minutes later; v) a treatment group of high-dose compound 2-1 (LPS+50 mg/kg compound 2-1 obtained in Example 2): each animal was administered compound 2-1 by gavage at a dose of 50 mg/kg, followed by intraperitoneal injection of LPS at a dose of 40 mg/kg 30 minutes later; vi) a treatment group of medium-dose indole analogue 3-[(1-methyl-1H-indole-2-carbonyl)amino]propionic acid disclosed in CN2019107285315 (LPS+25 mg/kg of indole analogue 3-[(1-methyl-1H-indole-2-carbonyl)amino]propionic acid disclosed in CN2019107285315). The survival of the mice in each group was monitored, the time of death of the mice was recorded, and the average survival time of the animals in each group was calculated.

| SMILES | Kd [1] [µM] | affinity strength to TRPC6 protein higher than to TRPC7 protein [1] [fold] | average survival time ([2]; 25 mg/kg) [h] | time after which the mice began to die ([2]; 25 mg/kg) [h] | time after which the mice began to die ([2]; 50 mg/kg) [h] | average survival time ([2]; 50 mg/kg) [h] |
| --- | --- | --- | --- | --- | --- | --- |
| Cn1c(C(=O)NCCC(=O)O)cc2ccccc21 [3-[(1-methyl-1H-indole-2-carbonyl)amino]propionic acid, reference compound] | 1.04 | 35 | 19.8 ± 3.1 |  |  |  |
| CC(=O)OCCCNC(=O)c1c(C=O)c2ccccc2n1C [compound 1-1, propyl 3-[(3-formyl-1-methyl-1H-indole-2-carbonyl)amino]acetate] | 3.04 | 254 | 24.8 ± 3.9 | 20 | 28 | 26.4 ± 4.3 |
| Cn1c(C(=O)NCCCOC(=O)c2ccccc2)c(C=O)c2ccccc21 [compound 2-1] | 3.21 | 160 |  |  | 22 | 24.2 ± 4.9 |
